The values below are quoted from earlier work in US8440172B2, “Stable soluble salts of phenylbenzimidazole sulfonic acid at PHS at or below 7.0” (Symrise AG, priority 2007, dated 2013).

The structures appear in SMILES notation.

The conditions of data set [1]: free acid, not neutralised.

Turning to `O=S(=O)(O)c1ccc2nc(-c3ccccc3)[nH]c2c1` [phenylbenzimidazole sulfonic acid, 2-phenylbenzimidazole-5-sulfonic acid], the solubility in water in data set [1] was 0.25 % w/w. The “pH of cosmetic formulation needed to prevent the free acid from recrystallising” value (Johncock, Cosmetic & Toiletries Magazine 1999) is recorded as “above 6.8”. In addition, the “pH at which crystal formation starts” value (cosmetic formulation, Johncock 1999) was 7.0.
